What was measured:
[1] = system: CD8+ T lymphocytes; assay: IFN-γ intracellular staining of CD8+ splenocytes; format: cell-based, mouse; settings: splenocytes of peptide-immunized mice stimulated with 10 µg/mL peptide for five hours; flow cytometry
Procedure: For IFN-γ intracellular staining, splenocytes from peptide- or vehicle-immunized mice were stimulated in vitro with the respective peptides (peptide 3, 13, 14, and 23) (10 µg/mL) for five hours, washed with 1× PBS, and stained with anti-CD8 antibody conjugated with fluorescein isothiocyanate (FITC) (BD Biosciences) for 30 minutes, followed by subsequent fixation and permeabilization following the instructions of eBioscience fixation and permeabilization kit. The splenocytes were further stained for intracellular IFN-γ using PE-conjugated anti-IFN-γ antibody (BD Biosciences) for another 30 minutes. After washing, the samples were analyzed using flow cytometry.
Figure 2 Epitope-specific CD4^+ and CD8^+ T-cell activation in peptide-immunized HLA-A*0201 transgenic mice. Splenocytes were isolated on day 17 from mice immunized twice subcutaneously with the peptides 3, 13, 14, 17, 23, or vehicle at day 0 and day 10. The splenocytes were labeled with CFSE and cultured in the presence or absence of 10 µg/mL of the respective peptides for 8 days. Proliferation of CD4^+ (A) or CD8^+ (B) lymphocytes in response to the different CD8 epitopes was analyzed by flow cytometry using anti-CD4 or CD8 antibodies conjugated with PE-Cy5. Results are presented as cell division index (CDI) as described in the Materials and Methods. […]

[2] = system: splenocytes from HLA-A*0201 transgenic C57BL/6 mice; assay: IFN-γ ELISPOT of splenocytes restimulated with peptide; format: cell-based, mouse
Outline: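 HLA-A*0201 transgenic C57BL/6 mice primed and boosted intranasally 20 days apart with 1×10^7 pfu rAd-F0 or 1×10^4 live RSV B1; splenocytes taken 10 days post-boost. Splenocytes restimulated 48 h at 37°C with 2 µg individual RSV F 9-mer peptides; spots counted, expressed per 5×10^5 splenocytes.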

In the case of “YMLTNSELL [peptide 14, HLA-A*0201-restricted 9-mer synthetic peptide from F protein of RSV-B1 strain]”, the “proportion of IFN-γ+/CD8+ T lymphocytes” value [1] is reported as “marginally increased”, the “IFN-γ ELISPOT, RSV” value ([2]; splenocytes of HLA-Tg B6 mice primed and boosted i.n. with 10^4 pfu RSV-B1, restimulated with 2 µg peptide, representative of two experiments, five mice per group) is reported as 97 cytokine-secreting cells per 5×10^5 splenocytes and the “IFN-γ ELISPOT, rAd-F0” value ([2]; splenocytes of HLA-Tg B6 mice primed and boosted i.n. with 10^7 pfu rAd-F0, restimulated with 2 µg peptide, representative of two experiments, five mice per group) is reported as 200 cytokine-secreting cells per 5×10^5 splenocytes. For the same sequence, the “IFN-γ level in restimulated splenocytes (ELISPOT, text grading)” value ([2]; splenocytes of rAd-F0- or RSV B1-primed and boosted HLA-Tg B6 mice, high = over 100 spots, moderate = over 50 spots) was “over 100 spots”.

Source: paper PMC3183052, “Immunoprotectivity of HLA-A2 CTL Peptides Derived from Respiratory Syncytial Virus Fusion Protein in HLA-A2 Transgenic Mouse” (PLoS ONE, 2011)
